Converted amounts (≈) assume the structure as drawn. Where a name gives a salt, the structure may show the parent alone. Read-outs that look alike come from different tables or passages of the source.

Assay in all cases: Antibacterial activity, microbroth dilution method (MIC)
For assay [1], the system named is Gram-positive Staphylococcus aureus (S. aureus) 29213. The format is cell-based. The following applies: Staphylococcus aureus, Gram-positive S. aureus 29213. An excerpt:
(§1) The antibacterial activity from a microbroth dilution method may be presented as the minimum inhibitory concentration (MIC in μg/mL). The MIC value is the lowest concentration of drug which prevents macroscopically visible growth under test conditions.
(§2) Antibacterial activity of test compounds against the super sensitive Gram-negative Escherichia coli (E. coli) BAS849 bacterium, the control Gram-negative E. coli 25922 strain and the Gram-positive Staphylococcus aureus (S. aureus) 29213 bacterium are shown in Table 1.

The subject of assay [2] is super sensitive Gram-negative Escherichia coli (E. coli) BAS849. Format: cell-based. The following applies: Escherichia coli, read-out: MIC, E. coli BAS849.
Source text: as §1, §2

For assay [3], the system named is control Gram-negative E. coli 25922 strain. The format is cell-based, Escherichia coli. The following applies: Escherichia coli.
Source text: as §1, §2

[4] abbreviates: super sensitive Gram-negative E. coli BAS849, microbroth dilution.

In the case of `Cl.Cn1c(CNCc2ccncc2)cc2cc3c(cc21)CCCc1c-3[nH]c(=O)c(C(=O)O)c1O` [Cpd 39, 4-hydroxy-9-methyl-2-oxo-10-(((pyridin-4-ylmethyl)amino)methyl)-1,2,5,6,7,9-hexahydropyrido[3′,2′:6,7]cyclohepta[1,2-f]indole-3-carboxylic acid hydrochloride], the values for the MIC in assay [1], in assay [2] (setting [4]) and in assay [3] were 3.5 to 12.5 µg/mL, less than 1 µg/mL and 3.5 to 12.5 µg/mL, respectively.

For the compound `O=C(O)c1c(O)c2c([nH]c1=O)-c1ccc(N3CCCC3)cc1CCC2` [Cpd 7, 4-hydroxy-2-oxo-9-(pyrrolidin-1-yl)-2,5,6,7-tetrahydro-1H-benzo[6,7]cyclohepta[1,2-b]pyridine-3-carboxylic acid], the MIC – broadly, the lowest concentration found to suppress growth – in assay [1] was 3.5 to 12.5 µg/mL (≈ 10.3 to 36.7 µM); in assay [2] (setting [4]), less than 1 µg/mL; in assay [3], 12.5 to 150 µg/mL (≈ 36.7 to 441 µM).

Turning to `CN(C)C1CCCN(c2ccc3c(c2)CCCc2c-3[nH]c(=O)c(C(=O)O)c2O)C1.Cl` (stereo not drawn) [Cpd 117, 9-(3-(dimethylamino)piperidin-1-yl)-4-hydroxy-2-oxo-2,5,6,7-tetrahydro-1H-benzo[6,7]cyclohepta[1,2-b]pyridine-3-carboxylic acid hydrochloride], the MIC in assay [1] lay in the range of 12.5 to 150 µg/mL; in assay [2] (setting [4]), 3.5 to 12.5 µg/mL; in assay [3] it was 12.5 to 150 µg/mL.

In the case of `COCCNCc1cc2cc3c(cc2n1C)CCCc1c-3[nH]c(=O)c(C(=O)O)c1O.Cl` [Cpd 148, 4-hydroxy-10-(((2-methoxyethyl)amino)methyl)-9-methyl-2-oxo-1,2,5,6,7,9-hexahydropyrido[3′,2′:6,7]cyclohepta[1,2-f]indole-3-carboxylic acid hydrochloride], the minimum inhibitory concentration (MIC) in assay [1] was 12.5 to 150 µg/mL; in assay [2] (setting [4]), less than 1 µg/mL; in assay [3] it was less than 1 µg/mL.

In the case of `CCNCc1cc2cc3c(cc2n1C)C=CCc1c-3[nH]c(=O)c(C(=O)O)c1O.Cl` [Cpd 69, 10-((ethylamino)methyl)-4-hydroxy-9-methyl-2-oxo-1,2,5,9-tetrahydropyrido[3′,2′:6,7]cyclohepta[1,2-f]indole-3-carboxylic acid hydrochloride], the minimum inhibitory concentration (MIC) in assay [1] is 12.5 to 150 µg/mL; in assay [2] (setting [4]) it was less than 1 µg/mL; in assay [3], less than 1 µg/mL.

For `Cl.Cn1c(CN2CCCC2)cc2cc3c(cc21)OCCc1c-3[nH]c(=O)c(C(=O)O)c1O` [Cpd 174, 4-hydroxy-9-methyl-2-oxo-10-(pyrrolidin-1-ylmethyl)-2,5,6,9-tetrahydro-1H-pyrido[2′,3′:4,5]oxepino[3,2-f]indole-3-carboxylic acid hydrochloride], the figures for the minimum inhibitory concentration (MIC) in assay [1], in assay [2] (setting [4]) and in assay [3] were 12.5 to 150 µg/mL, less than 1 µg/mL and 1 to 3.5 µg/mL, respectively.

Turning to `CCn1c2c(c(O)c(C(=O)O)c1=O)CC=Cc1cc3c(ccn3C)cc1-2` [Cpd 132, 1-ethyl-4-hydroxy-9-methyl-2-oxo-1,2,5,9-tetrahydropyrido[3′,2′:6,7]cyclohepta[1,2-f]indole-3-carboxylic acid], the MIC was 3.5 to 12.5 µg/mL (≈ 9.99 to 35.7 µM) in assay [1], 3.5 to 12.5 µg/mL (≈ 9.99 to 35.7 µM) in assay [2] (setting [4]) and 12.5 to 150 µg/mL (≈ 35.7 to 428 µM) in assay [3].

Turning to `CC(C)CNCc1cc2cc3c(cc2n1C)CCCc1c-3[nH]c(=O)c(C(=O)O)c1O.Cl` [Cpd 154, 4-hydroxy-10-((isobutylamino)methyl)-9-methyl-2-oxo-1,2,5,6,7,9-hexahydropyrido[3′,2′:6,7]cyclohepta[1,2-f]indole-3-carboxylic acid hydrochloride], the MIC in assay [1] was 3.5 to 12.5 µg/mL; in assay [2] (setting [4]), less than 1 µg/mL; in assay [3], less than 1 µg/mL.

On to `CCCNCc1cc2cc3c(cc2n1C)CCCc1c-3[nH]c(=O)c(C(=O)O)c1O.Cl` [Cpd 44, 4-hydroxy-9-methyl-2-oxo-10-((propylamino)methyl)-1,2,5,6,7,9-hexahydropyrido[3′,2′:6,7]cyclohepta[1,2-f]indole-3-carboxylic acid hydrochloride], for which the MIC in assay [1] is 3.5 to 12.5 µg/mL; in assay [2] (setting [4]), less than 1 µg/mL; in assay [3], less than 1 µg/mL.

With `CCNCc1cc2cc3c(cc2n1C)[C@H](O)[C@H](O)Cc1c-3[nH]c(=O)c(C(=O)O)c1O.Cl` (relative stereo) [Cpd 71, (cis)-10-((ethylamino)methyl)-4,6,7-trihydroxy-9-methyl-2-oxo-1,2,5,6,7,9-hexahydropyrido[3′,2′:6,7]cyclohepta[1,2-f]indole-3-carboxylic acid hydrochloride], the MIC in assay [1], in assay [2] (setting [4]) and in assay [3] was 12.5 to 150 µg/mL each time.

Consider `CN(C)c1ccc2c(c1)CCCCc1c-2[nH]c(=O)c(C(=O)O)c1O` [Cpd 5, 10-(dimethylamino)-4-hydroxy-2-oxo-1,2,5,6,7,8-hexahydrobenzo[7,8]cycloocta[1,2-b]pyridine-3-carboxylic acid], for which the MIC is 3.5 to 12.5 µg/mL (≈ 10.7 to 38.1 µM) in assay [1], less than 1 µg/mL in assay [2] (setting [4]) and 12.5 to 150 µg/mL (≈ 38.1 to 457 µM) in assay [3].

On to `Cl.Cn1c(CNC(C)(C)C)cc2cc3c(cc21)CCCc1c-3[nH]c(=O)c(C(=O)O)c1O` [Cpd 27, 10-((tert-butylamino)methyl)-4-hydroxy-9-methyl-2-oxo-1,2,5,6,7,9-hexahydropyrido[3′,2′:6,7]cyclohepta[1,2-f]indole-3-carboxylic acid hydrochloride], for which the minimal inhibitory concentration (MIC) in assay [1] is 1 to 3.5 µg/mL; in assay [2] (setting [4]), less than 1 µg/mL; in assay [3], less than 1 µg/mL.

With `CNCc1cc2cc3c(cc2n1C)CCCCc1c-3[nH]c(=O)c(C(=O)O)c1O.Cl` [Cpd 58, 4-hydroxy-10-methyl-11-((methylamino)methyl)-2-oxo-2,5,6,7,8,10-hexahydro-1H-pyrido[3′,2′:7,8]cycloocta[1,2-f]indole-3-carboxylic acid hydrochloride], the minimal inhibitory concentration (MIC) in assay [1] is 3.5 to 12.5 µg/mL; in assay [2] (setting [4]), less than 1 µg/mL; in assay [3] it was less than 1 µg/mL.

As to `Cl.Cn1c(CNC(C)(C)C)cc2cc3c(cc21)OCCc1c-3[nH]c(=O)c(C(=O)O)c1O` [Cpd 175, 10-((tert-butylamino)methyl)-4-hydroxy-9-methyl-2-oxo-2,5,6,9-tetrahydro-1H-pyrido[2′,3′:4,5]oxepino[3,2-f]indole-3-carboxylic acid hydrochloride], the results for the MIC in assay [1], in assay [2] (setting [4]) and in assay [3] were 3.5 to 12.5 µg/mL, less than 1 µg/mL and less than 1 µg/mL, respectively.

Regarding `Cl.Cl.Cn1c(CNCCN2CCCC2)cc2cc3c(cc21)OCCc1c-3[nH]c(=O)c(C(=O)O)c1O` [Cpd 179, 4-hydroxy-9-methyl-2-oxo-10-(((2-(pyrrolidin-1-yl)ethyl)amino)methyl)-2,5,6,9-tetrahydro-1H-pyrido[2′,3′:4,5]oxepino[3,2-f]indole-3-carboxylic acid dihydrochloride], the MIC in assay [1], in assay [2] (setting [4]) and in assay [3] was 12.5 to 150 µg/mL each time.

`N[C@@H]1[C@H]2CN(c3ccc4c(c3)CCCc3c-4[nH]c(=O)c(C(=O)O)c3O)C[C@@H]12` [Cpd 9, 9-((cis,cis)-6-amino-3-azabicyclo[3.1.0]hexan-3-yl)-4-hydroxy-2-oxo-2,5,6,7-tetrahydro-1H-benzo[6,7]cyclohepta[1,2-b]pyridine-3-carboxylic acid trifluoroacetate]: the MIC in assay [1] was 3.5 to 12.5 µg/mL; in assay [2] it was less than 1 µg/mL; in assay [3] it was less than 1 µg/mL.

`COC1CCN(Cc2cc3cc4c(cc3n2C)CCCc2c-4[nH]c(=O)c(C(=O)O)c2O)C1.Cl` (stereo not drawn) [Cpd 158, 4-hydroxy-10-((3-methoxypyrrolidin-1-yl)methyl)-9-methyl-2-oxo-1,2,5,6,7,9-hexahydropyrido[3′,2′:6,7]cyclohepta[1,2-f]indole-3-carboxylic acid hydrochloride]: the figures for the MIC in assay [1], in assay [2] (setting [4]) and in assay [3] were 3.5 to 12.5 µg/mL, less than 1 µg/mL and 1 to 3.5 µg/mL, respectively.

As for `CCC(C)NCc1cc2cc3c(cc2n1C)OCCc1c-3[nH]c(=O)c(C(=O)O)c1O.Cl` (stereo not drawn) [Cpd 168, 10-((sec-butylamino)methyl)-4-hydroxy-9-methyl-2-oxo-2,5,6,9-tetrahydro-1H-pyrido[2′,3′:4,5]oxepino[3,2-f]indole-3-carboxylic acid hydrochloride], the figures for the MIC in assay [1], in assay [2] (setting [4]) and in assay [3] were 3.5 to 12.5 µg/mL, less than 1 µg/mL and less than 1 µg/mL, respectively.

Regarding `Cl.Cn1c(CN2CCC2)cc2cc3c(cc21)CCCc1cc(C(=O)O)c(=O)[nH]c1-3` [Cpd 57, 10-(azetidin-1-ylmethyl)-9-methyl-2-oxo-1,2,5,6,7,9-hexahydropyrido[3′,2′:6,7]cyclohepta[1,2-f]indole-3-carboxylic acid hydrochloride], the MIC is 12.5 to 150 µg/mL in assay [1], less than 1 µg/mL in assay [2] (setting [4]) and less than 1 µg/mL in assay [3].

`Cl.Cn1c(CNCC2CCC2)cc2cc3c(cc21)CCCc1c-3[nH]c(=O)c(C(=O)O)c1O` [Cpd 37, 10-(((cyclobutylmethyl)amino)methyl)-4-hydroxy-9-methyl-2-oxo-1,2,5,6,7,9-hexahydropyrido[3′,2′:6,7]cyclohepta[1,2-f]indole-3-carboxylic acid hydrochloride]: the results for the MIC in assay [1], in assay [2] (setting [4]) and in assay [3] were 3.5 to 12.5 µg/mL, less than 1 µg/mL and 1 to 3.5 µg/mL, respectively.

With `CN(CCO)Cc1cc2cc3c(cc2n1C)CCCc1c-3[nH]c(=O)c(C(=O)O)c1O.Cl` [Cpd 149, 4-hydroxy-10-(((2-hydroxyethyl)(methyl)amino)methyl)-9-methyl-2-oxo-1,2,5,6,7,9-hexahydropyrido[3′,2′:6,7]cyclohepta[1,2-f]indole-3-carboxylic acid hydrochloride], the MIC is 3.5 to 12.5 µg/mL in assay [1], less than 1 µg/mL in assay [2] (setting [4]) and 3.5 to 12.5 µg/mL in assay [3].

With `Cl.O=C(O)c1c(O)c2c([nH]c1=O)-c1ccc(N3CCNCC3)cc1CCC2` [Cpd 119, 4-hydroxy-2-oxo-9-(piperazin-1-yl)-2,5,6,7-tetrahydro-1H-benzo[6,7]cyclohepta[1,2-b]pyridine-3-carboxylic acid hydrochloride], the minimal inhibitory concentration (MIC) in assay [1] lay within 12.5 to 150 µg/mL; in assay [2] (setting [4]), 3.5 to 12.5 µg/mL; in assay [3] it was 12.5 to 150 µg/mL.

For the origin of these results see patent US20150038438A1, “ANTIBACTERIAL COMPOUNDS AND METHODS FOR USE” (PTC THERAPEUTICS, INC., priority 2011, published 2015).
